Results from patent publication US10226478B2, “Dosage regimen for sapacitabine and decitabine in combination for treating acute myeloid leukemia” (Cyclacel Limited, priority 2011, dated 2019).
Read-outs that look alike come from different tables or passages of the source.

Legend:
HL60 cells [1] = assay: Annexin V staining (apoptosis, flow cytometry); conditions: single agents, azacitidine 72 and 96 hours, CNDAC 48 or 72 hours
Procedure: Single agent treatments were also performed as controls. After incubation cells were centrifuged at 500 g for 5 min, washed twice in PBS and once in annexin buffer (10 mM Hepes pH 7.4, 2.5 mM CaCl2, and 140 mM NaCl). Cells were resuspended at 1×10^6/ml and 100 μl was transferred to a 5 ml tube prior to incubation for 10 min in the dark at room temperature with 5 μl of annexin V-FITC stain (Beckton Dickinson) and 10 μl of propidium iodide [50 mg/ml]. Annexin buffer (1 ml) was added and the cells were analysed by flow cytometry. Annexin V positive cells (apoptotic) were designated on the basis of green fluorescence and propidium iodide (dead) positive cells were designated on the basis of red fluorescence.

MV4-11 cells = assay: 72 h single agent cytotoxicity, alamar blue assay; type: cell-based; conditions: Homo sapiens
Procedure: (§1) In order to complete the combination studies, the cytotoxic effects of individual compounds were determined.
(§2) A dilution series for each drug was prepared in medium. Two hours after seeding, an equal volume of each compound was added at twice the desired concentration and incubated for 72 hours. All treatments were performed in triplicate. At the end of the incubation, a 20% stock of alamar blue (Roche, Lewes, UK) was prepared in media, and an equal volume was added to each well and incubated for three hours. Absorbance was read at 544-595 nm and data was analysed (Excel Fit v4.0) to determine the IC50 (concentration of compound that inhibited cell growth by 50%) for each compound.

HL60 cells [2] = assay: 72 h single agent cytotoxicity, alamar blue assay; type: cell-based; conditions: Homo sapiens
Procedure: as §1, §2

[3] = test system: cell line that is resistant to cytarabine; conditions: cited from earlier work

With `N#C[C@H]1[C@H](O)[C@@H](CO)O[C@H]1n1ccc(N)nc1=O` [CNDAC, 1-(2-C-Cyano-2-deoxy-β-D-arabino-pentafuranosyl)-cytosine] the “annexin V, proportion of apoptotic cells” value (HL60 cells [1]) was “little effect”, the IC50 (MV4-11 cells) was 460 nM and the IC50 (HL60 cells [2]; HL-60, HL60 cells, 72 hour, read-out: 1×IC50) was 133 nM. For the same compound, the IC50 (HL60 cells [2]; HL-60 cells, read-out: IC50) was 130 nM.

In the case of `Nc1ccn([C@@H]2O[C@H](CO)[C@@H](O)[C@@H]2O)c(=O)n1` [cytarabine], the IC50 ([3]; after 5-azacitidine (upregulation of dCK)) is listed as 550 nM and the IC50 ([3]; before 5-azacitidine) is listed as 12500 nM.

For `Nc1ncn([C@@H]2O[C@H](CO)[C@@H](O)[C@H]2O)c(=O)n1` [azacitidine, 4-amino-1-β-D-ribofuranosyl-s-triazin-2(1H)-one], the “annexin V, proportion of apoptotic cells” value (HL60 cells [1]) was “small increase in the proportion of apoptotic cells”, the IC50 (HL60 cells [2]; HL-60, HL60 cells, 72 hour, half of the IC50, read-out: 0.5×IC50) was 128 nM and the IC50 (HL60 cells [2]; HL-60 cells, half of the IC50, read-out: 0.5×IC50) was 130 nM.
